In patent publication US12297194B2, “N2-phenylpyrimidine-2,4-diamine compounds, and preparation methods and methods of use thereof” (BRIDGE BIOTHERAPEUTICS, INC., priority 2021, dated 2025):

Legend:
Type in all cases: cell-based, murine
[1] = target: Ba/F3 EGFR Del19/T790M mutants (Homo sapiens, UniProt P00533, T790M, cells depend on it, form not given); assay: CellTiter-Glo cell viability, Ba/F3 EGFR Del19/T790M cells; details: 72 hours, read-out: Ba/F3 EGFR mutant cell (IC50, nM) D/T
Summary of the method: (§1)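 EGFR-driven Ba/F3 cells, 2500 per well, exposed 72 h at 37° C to compound (top 2000 nM, ~3-fold steps). Readout: cellular ATP, luminescence; IC50 calculated.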

[2] = target: Ba/F3 EGFR Del19/T790M/C797S mutants (Homo sapiens, UniProt P00533, T790M/C797S, cells depend on it, form not given); assay: CellTiter-Glo cell viability, Ba/F3 EGFR Del19/T790M/C797S cells; details: 72 hours, read-out: Ba/F3 EGFR mutant cell (IC50, nM) D/T/C
Sequence of Ba/F3 EGFR Del19/T790M/C797S mutants (P00533 with tags, fused parts or gaps DEL746-750/T790M/C797S, form open): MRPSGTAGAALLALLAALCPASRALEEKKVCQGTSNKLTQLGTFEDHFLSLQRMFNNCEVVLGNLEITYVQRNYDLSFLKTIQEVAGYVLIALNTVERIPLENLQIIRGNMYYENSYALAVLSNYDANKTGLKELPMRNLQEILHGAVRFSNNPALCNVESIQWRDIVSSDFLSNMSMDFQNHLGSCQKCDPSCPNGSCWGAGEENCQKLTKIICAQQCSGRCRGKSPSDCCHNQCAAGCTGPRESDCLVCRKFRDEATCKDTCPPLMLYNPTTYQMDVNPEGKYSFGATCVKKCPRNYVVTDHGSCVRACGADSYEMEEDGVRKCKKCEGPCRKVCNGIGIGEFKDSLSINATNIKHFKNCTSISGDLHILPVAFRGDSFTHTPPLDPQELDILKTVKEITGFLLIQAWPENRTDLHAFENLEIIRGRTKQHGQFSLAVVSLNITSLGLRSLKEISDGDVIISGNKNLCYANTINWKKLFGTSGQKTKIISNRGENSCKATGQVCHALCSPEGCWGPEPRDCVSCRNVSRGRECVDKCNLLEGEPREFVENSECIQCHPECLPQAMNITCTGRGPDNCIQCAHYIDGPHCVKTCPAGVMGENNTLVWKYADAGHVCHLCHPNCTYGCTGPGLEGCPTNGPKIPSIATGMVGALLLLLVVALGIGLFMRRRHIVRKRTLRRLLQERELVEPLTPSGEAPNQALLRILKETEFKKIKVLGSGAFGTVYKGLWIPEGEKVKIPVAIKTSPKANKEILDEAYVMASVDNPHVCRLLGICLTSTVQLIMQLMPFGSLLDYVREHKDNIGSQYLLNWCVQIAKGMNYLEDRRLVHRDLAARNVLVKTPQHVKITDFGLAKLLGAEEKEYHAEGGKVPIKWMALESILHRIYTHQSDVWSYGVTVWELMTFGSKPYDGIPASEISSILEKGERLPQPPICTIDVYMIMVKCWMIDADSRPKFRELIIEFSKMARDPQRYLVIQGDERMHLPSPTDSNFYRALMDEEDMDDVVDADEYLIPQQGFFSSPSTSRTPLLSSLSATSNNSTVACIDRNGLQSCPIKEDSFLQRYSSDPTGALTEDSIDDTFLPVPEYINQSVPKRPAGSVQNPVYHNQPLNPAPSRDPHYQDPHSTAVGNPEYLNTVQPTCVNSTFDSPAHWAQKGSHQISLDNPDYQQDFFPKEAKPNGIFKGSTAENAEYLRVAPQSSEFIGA
Summary of the method: as §1

[3] = target: Ba/F3 EGFR Del19/C797S mutants (Homo sapiens, UniProt P00533, C797S, cells depend on it, form not given); assay: CellTiter-Glo cell viability, Ba/F3 EGFR Del19/C797S cells; details: 72 hours, read-out: Ba/F3 EGFR mutant cell (IC50, nM) D/C
Sequence of Ba/F3 EGFR Del19/C797S mutants (P00533 with tags, fused parts or gaps DEL746-750/C797S, form open): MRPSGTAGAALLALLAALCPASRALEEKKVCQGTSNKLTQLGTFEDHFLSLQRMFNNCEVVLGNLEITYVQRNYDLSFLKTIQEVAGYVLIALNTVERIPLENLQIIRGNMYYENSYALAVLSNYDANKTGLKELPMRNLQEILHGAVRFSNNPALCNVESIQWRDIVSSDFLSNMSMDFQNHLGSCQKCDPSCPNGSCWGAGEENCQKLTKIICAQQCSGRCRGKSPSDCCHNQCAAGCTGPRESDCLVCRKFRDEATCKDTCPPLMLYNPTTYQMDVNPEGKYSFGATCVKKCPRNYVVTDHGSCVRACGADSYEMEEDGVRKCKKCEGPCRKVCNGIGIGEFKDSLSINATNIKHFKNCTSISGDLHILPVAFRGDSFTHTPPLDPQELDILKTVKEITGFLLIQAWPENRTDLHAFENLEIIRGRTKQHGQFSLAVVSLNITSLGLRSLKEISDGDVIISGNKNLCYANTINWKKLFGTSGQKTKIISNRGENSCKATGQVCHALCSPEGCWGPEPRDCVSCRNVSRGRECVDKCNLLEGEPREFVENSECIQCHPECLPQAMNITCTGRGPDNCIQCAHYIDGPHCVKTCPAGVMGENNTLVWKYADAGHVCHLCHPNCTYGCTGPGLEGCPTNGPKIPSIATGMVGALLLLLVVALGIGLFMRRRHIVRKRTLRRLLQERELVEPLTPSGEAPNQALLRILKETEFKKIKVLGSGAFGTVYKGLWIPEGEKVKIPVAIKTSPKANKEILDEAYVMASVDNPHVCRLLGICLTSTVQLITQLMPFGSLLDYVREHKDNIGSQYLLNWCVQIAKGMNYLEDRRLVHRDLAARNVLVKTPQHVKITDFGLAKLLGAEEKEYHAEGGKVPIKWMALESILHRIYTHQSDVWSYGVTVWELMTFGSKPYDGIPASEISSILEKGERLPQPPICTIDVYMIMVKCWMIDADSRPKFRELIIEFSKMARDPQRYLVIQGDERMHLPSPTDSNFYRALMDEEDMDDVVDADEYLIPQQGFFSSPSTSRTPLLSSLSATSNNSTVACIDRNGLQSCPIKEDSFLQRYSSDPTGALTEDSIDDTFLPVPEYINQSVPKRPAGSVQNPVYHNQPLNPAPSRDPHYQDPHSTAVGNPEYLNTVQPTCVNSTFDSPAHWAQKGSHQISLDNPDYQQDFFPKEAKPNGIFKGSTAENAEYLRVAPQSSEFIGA
Summary of the method: as §1

[4] = target: Ba/F3 EGFR L858R/T790M/C797S mutants (Homo sapiens, UniProt P00533, T790M/C797S/L858R, cells depend on it); assay: CellTiter-Glo cell viability, Ba/F3 EGFR L858R/T790M/C797S cells; details: 72 hours, read-out: Ba/F3 EGFR mutant cell (IC50, nM) L/T/C
Sequence of Ba/F3 EGFR L858R/T790M/C797S mutants (P00533 whole entry T790M/C797S/L858R): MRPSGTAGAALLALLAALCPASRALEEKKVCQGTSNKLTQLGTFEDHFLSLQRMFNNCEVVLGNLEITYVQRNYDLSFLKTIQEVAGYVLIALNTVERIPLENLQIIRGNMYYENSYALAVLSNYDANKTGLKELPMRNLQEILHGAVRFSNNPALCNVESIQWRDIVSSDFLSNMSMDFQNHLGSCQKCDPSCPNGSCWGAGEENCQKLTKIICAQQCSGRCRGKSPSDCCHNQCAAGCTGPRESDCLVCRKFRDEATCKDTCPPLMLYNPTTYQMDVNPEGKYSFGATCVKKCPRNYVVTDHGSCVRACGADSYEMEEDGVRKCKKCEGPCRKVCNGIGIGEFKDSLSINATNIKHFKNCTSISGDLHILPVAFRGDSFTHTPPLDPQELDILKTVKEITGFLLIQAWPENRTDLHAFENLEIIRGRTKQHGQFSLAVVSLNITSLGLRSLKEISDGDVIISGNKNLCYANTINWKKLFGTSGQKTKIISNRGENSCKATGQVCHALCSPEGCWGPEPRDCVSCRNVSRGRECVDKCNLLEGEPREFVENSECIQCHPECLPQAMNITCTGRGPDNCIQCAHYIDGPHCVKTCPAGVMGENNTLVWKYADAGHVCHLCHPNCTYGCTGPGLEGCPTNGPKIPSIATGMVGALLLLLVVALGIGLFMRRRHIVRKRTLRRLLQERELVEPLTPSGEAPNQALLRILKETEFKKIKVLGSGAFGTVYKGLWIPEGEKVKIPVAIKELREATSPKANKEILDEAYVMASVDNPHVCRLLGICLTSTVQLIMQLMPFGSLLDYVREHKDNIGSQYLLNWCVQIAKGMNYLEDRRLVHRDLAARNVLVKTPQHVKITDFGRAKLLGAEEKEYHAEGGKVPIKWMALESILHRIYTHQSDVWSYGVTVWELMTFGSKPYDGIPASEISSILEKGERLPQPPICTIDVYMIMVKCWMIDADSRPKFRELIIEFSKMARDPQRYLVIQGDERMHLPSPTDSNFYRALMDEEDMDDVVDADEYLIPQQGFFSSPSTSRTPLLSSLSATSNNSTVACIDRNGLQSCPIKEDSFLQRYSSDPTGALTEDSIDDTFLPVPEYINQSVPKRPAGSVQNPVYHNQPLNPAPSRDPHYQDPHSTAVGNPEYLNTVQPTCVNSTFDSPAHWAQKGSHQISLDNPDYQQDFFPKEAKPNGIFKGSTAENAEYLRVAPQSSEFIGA
Summary of the method: as §1

[5] = target: Ba/F3 EGFR L858R/C797S mutants (Homo sapiens, UniProt P00533, C797S/L858R, cells depend on it); assay: CellTiter-Glo cell viability, Ba/F3 EGFR L858R/C797S cells; details: 72 hours, read-out: Ba/F3 EGFR mutant cell (IC50, nM) L/C
Summary of the method: as §1

Ba/F3 EGFR Wild-type = Ba/F3 EGFR Wild-type (Homo sapiens, UniProt P00533); assay: CellTiter-Glo cell viability, Ba/F3 EGFR wild-type cells; details: 72 hours, read-out: Ba/F3 EGFR mutant cell (IC50, nM) WT
Summary of the method: as §1

Sequence of Ba/F3 EGFR Del19/T790M mutants (P00533 with tags, fused parts or gaps DEL746-750/T790M, form open): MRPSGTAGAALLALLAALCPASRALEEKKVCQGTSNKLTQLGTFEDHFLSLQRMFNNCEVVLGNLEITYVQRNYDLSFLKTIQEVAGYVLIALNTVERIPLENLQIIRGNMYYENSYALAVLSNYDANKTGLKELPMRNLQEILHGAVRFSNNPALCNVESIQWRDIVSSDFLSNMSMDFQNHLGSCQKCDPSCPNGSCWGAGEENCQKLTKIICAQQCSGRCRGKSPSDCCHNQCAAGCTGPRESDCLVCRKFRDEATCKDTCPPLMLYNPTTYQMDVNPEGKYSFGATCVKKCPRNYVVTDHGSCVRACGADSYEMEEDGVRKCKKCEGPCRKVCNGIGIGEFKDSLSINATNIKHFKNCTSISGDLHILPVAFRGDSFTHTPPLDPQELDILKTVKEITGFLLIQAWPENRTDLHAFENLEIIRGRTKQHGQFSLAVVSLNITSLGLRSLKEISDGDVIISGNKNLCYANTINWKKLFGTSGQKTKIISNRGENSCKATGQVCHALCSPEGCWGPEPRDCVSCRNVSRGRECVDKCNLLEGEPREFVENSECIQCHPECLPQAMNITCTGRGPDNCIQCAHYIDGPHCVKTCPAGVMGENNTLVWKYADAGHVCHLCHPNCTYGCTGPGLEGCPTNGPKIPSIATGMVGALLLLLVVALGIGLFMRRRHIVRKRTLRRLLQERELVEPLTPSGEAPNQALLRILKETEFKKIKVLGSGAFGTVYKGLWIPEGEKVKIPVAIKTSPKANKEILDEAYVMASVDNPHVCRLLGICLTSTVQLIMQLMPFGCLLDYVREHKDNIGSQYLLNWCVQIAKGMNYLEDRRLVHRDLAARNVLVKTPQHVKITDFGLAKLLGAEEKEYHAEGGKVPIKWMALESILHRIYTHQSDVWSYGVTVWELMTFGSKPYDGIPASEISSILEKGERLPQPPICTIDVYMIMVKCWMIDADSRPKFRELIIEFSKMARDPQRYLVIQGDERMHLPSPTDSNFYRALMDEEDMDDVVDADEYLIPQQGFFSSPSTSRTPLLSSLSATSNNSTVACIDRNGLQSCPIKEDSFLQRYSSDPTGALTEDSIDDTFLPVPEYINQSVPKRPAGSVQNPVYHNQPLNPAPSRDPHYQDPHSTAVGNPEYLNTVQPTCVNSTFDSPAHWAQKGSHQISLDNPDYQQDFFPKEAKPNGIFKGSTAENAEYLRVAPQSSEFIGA

Compound | GI50 [1] | GI50 [2] | GI50 [3] | GI50 [4] | GI50 [5] | GI50 (Ba/F3 EGFR Wild-type)
COc1cc(C2CCNCC2)ccc1Nc1ncc(Cl)c(Nc2ccc3nccnc3c2NC(C)=O)n1 [Example D3, N-(6-((5-chloro-2-((2-methoxy-4-(piperidin-4-yl)phenyl)amino)pyrimidin-4-yl)amino)quinoxalin-5-yl)acetamide] | 678 nM | 717 nM | 378 nM | 1180 nM | 1030 nM | > 2000 nM
CCc1cc(Nc2ncc(Cl)c(Nc3ccc4nccnc4c3N(C)S(C)(=O)=O)n2)c(OC)cc1N1CC2CCC1CN2C(C)C (stereo not drawn) [Example B28, N—N-(6-((5-chloro-2-((5-ethyl-4-(5-isopropyl-2,5-diazabicyclo[2.2.2]octan-2-yl)-2-methoxyphenyl)amino)pyrimidin-4-yl)amino)quinoxalin-5-yl)-N-methylmethanesulfonamide] | 23 nM | 5 nM | 14 nM | 50 nM | 26 nM | 332 nM
CCc1cc(Nc2ncc(Cl)c(Nc3ccc4nccnc4c3NS(C)(=O)=O)n2)c(OC)cc1N1CCC(N2CCCC2)CC1 [Example A34, N-(6-((5-chloro-2-((5-ethyl-2-methoxy-4-(4-(pyrrolidin-1-yl)piperidin-1-yl)phenyl)amino)pyrimidin-4-yl)amino)quinoxalin-5-yl)methanesulfonamide] | 5 nM | 4 nM | 1 nM | 13 nM | 16 nM | > 2000 nM
CCc1cc(Nc2ncc(Br)c(Nc3ccc4nccnc4c3N(C)S(C)(=O)=O)n2)c(OC)cc1N1CCC(N2CC3CCC2CN3C)CC1 (stereo not drawn) [Example A48, N-(6-((5-bromo-2-((5-ethyl-2-methoxy-4-(4-(5-methyl-2,5-diazabicyclo[2.2.2]octan-2-yl)piperidin-1-yl)phenyl)amino)pyrimidin-4-yl)amino)quinoxalin-5-yl)-N-methylmethanesulfonamide] | 9 nM | 17 nM | 6 nM | 28 nM | 112 nM | 601 nM
COc1cc(N2CCC(N(C)C)CC2)c(C)cc1Nc1ncc(Br)c(Nc2ccc3nccnc3c2NS(C)(=O)=O)n1 [Example B1, N-(6-((5-bromo-2-((4-(4-(dimethylamino)piperidin-1-yl)-2-methoxy-5-methylphenyl)amino)pyrimidin-4-yl)amino)quinoxalin-5-yl)methanesulfonamide] | 8 nM | 7 nM | 38 nM | 28 nM | 64 nM | 302 nM
CCS(=O)(=O)Nc1c(Nc2nc(Nc3cc(C)c(N4CCC(N5CCN(C)CC5)CC4)cc3OC)ncc2Cl)ccc2nccnc12 [Example A25, N-(6-((5-chloro-2-((2-methoxy-5-methyl-4-(4-(4-methylpiperazin-1-yl)piperidin-1-yl)phenyl)amino)pyrimidin-4-yl)amino)quinoxalin-5-yl)ethanesulfonamide] | 18 nM | 134 nM | 46 nM | 34 nM | 112 nM | 373 nM
CCc1cc(Nc2ncc(Cl)c(Nc3cccc(OC)c3NS(C)(=O)=O)n2)c(OC)cc1N1CCC(N2CCOCC2)CC1 [Example C20, N-(2-((5-chloro-2-((5-ethyl-2-methoxy-4-(4-morpholinopiperidin-1-yl)phenyl)amino)pyrimidin-4-yl)amino)-6-methoxyphenyl)methanesulfonamide] | 21 nM | 21 nM | 22 nM | 148 nM | 87 nM | 1160 nM
COc1cc(N2CCOCC2)c(C)cc1Nc1ncc(Br)c(Nc2ccc3nccnc3c2S(C)(=O)=O)n1 [Example D1, 5-bromo-N2-(2-methoxy-5-methyl-4-morpholinophenyl)-N4-(5-(methylsulfonyl)quinoxalin-6-yl)pyrimidine-2,4-diamine] | 477 nM | 959 nM | 1010 nM | 536 nM | 1120 nM | > 2000 nM
CCS(=O)(=O)Nc1c(Nc2nc(Nc3cc(C)c(N4CCC(N5CCN(C)CC5)CC4)cc3OC)ncc2Cl)cccc1OC [Example C16, N-(2-((5-chloro-2-((2-methoxy-5-methyl-4-(4-(4-methylpiperazin-1-yl)piperidin-1-yl)phenyl)amino)pyrimidin-4-yl)amino)-6-methoxyphenyl)ethanesulfonamide] | 6 nM | 10 nM | 9 nM | 34 nM | 51 nM | 486 nM
COc1cc(N2CCC(N3CCN(C)CC3)CC2)c(C)cc1Nc1ncc(Br)c(Nc2ccc3nccnc3c2NS(=O)(=O)C2CC2)n1 [Example A19, N-(6-((5-bromo-2-((2-methoxy-5-methyl-4-(4-(4-methylpiperazin-1-yl)piperidin-1-yl)phenyl)amino)pyrimidin-4-yl)amino)quinoxalin-5-yl)cyclopropanesulfonamide] | 6 nM | 24 nM | 66 nM | 43 nM | 80 nM | 395 nM
COc1cc(N2CCC(N3CCOCC3)CC2)c(C)cc1Nc1ncc(Br)c(Nc2ccc3nccnc3c2NS(C)(=O)=O)n1 [Example A23, N-(6-((5-bromo-2-((2-methoxy-5-methyl-4-(4-morpholinopiperidin-1-yl)phenyl)amino)pyrimidin-4-yl)amino)quinoxalin-5-yl)methanesulfonamide] | 41 nM | 16 nM | 51 nM | 49 nM | 114 nM | 416 nM
CCc1cc(Nc2ncc(Br)c(Nc3ccc4nccnc4c3N(C)S(C)(=O)=O)n2)c(OC(C)C)cc1C1CCN(C)CC1 [Example B32, N-(6-((5-bromo-2-((5-ethyl-2-isopropoxy-4-(1-methylpiperidin-4-yl)phenyl)amino)pyrimidin-4-yl)amino)quinoxalin-5-yl)-N-methylmethanesulfonamide] | 154 nM | 29 nM | 172 nM | 83 nM | 200 nM | 851 nM
CCc1cc(Nc2ncc(Br)c(Nc3ccc4nccnc4c3N(C)S(C)(=O)=O)n2)c(OC)cc1N1CC2CCC1CN2C(C)C (stereo not drawn) [Example B30, N-(6-((5-bromo-2-((5-ethyl-4-(5-isopropyl-2,5-diazabicyclo[2.2.2]octan-2-yl)-2-methoxyphenyl)amino)pyrimidin-4-yl)amino)quinoxalin-5-yl)-N-methylmethanesulfonamide] | 7 nM | 2 nM | 11 nM | 71 nM | 23 nM | 233 nM
CCc1cc(Nc2ncc(Br)c(Nc3ccc4c(c3N(C)S(C)(=O)=O)OCCO4)n2)c(OC)cc1N1CCC(N2CCN(C)CC2)CC1 [Example C28, N-(6-((5-bromo-2-((5-ethyl-2-methoxy-4-(4-(4-methylpiperazin-1-yl)piperidin-1-yl)phenyl)amino)pyrimidin-4-yl)amino)-2,3-dihydrobenzo[b][1,4]dioxin-5-yl)-N-methylmethanesulfonamide] | 10 nM | 10 nM | 7 nM | 13 nM | 68 nM | 699 nM
